Measured values published in patent publication US10039806B2, “Methods and compositions for treating antiprogestin-resistant cancers” (Fundación Sales, priority 2011, dated 2018).

Assays:
GR in C4-2-HI cells = experiment: GR expression in vitro (immunofluorescence); assay type: cell-based, mouse; details: 5×10^-7 M, 96 h
Description: Frozen sections or cells grown in chamber slides, fixed in 70% ethanol for 1 h, were incubated with antibodies recognizing Dnmt1, Dnmt3a, Dnmt3b, PRA (Ab-7), RPB (Ab-6), or GR, in blocking buffer at a 1:200 dilution overnight at 4° C. They were then incubated with a FITC conjugated anti-rabbit (FI-1000, Vector Laboratories Burlingame, Calif.; 1:100 dilution) secondary antibody for 1 h at room temperature. Nuclei were stained with propidium iodide (PI, Sigma). The slides were mounted using Vectashield (Vector Laboratories). Stained cells were analyzed using a Nikon Eclipse E800 Laser Confocal Microscope and EZ-C1 2.20 software. Cell staining was quantified using Image Quant software.

[1] = system: PRA and PRB in C4-2-HI and 59-HI cells; experiment: PR isoform expression after 5azadC in vitro (immunofluorescence, western blot); assay type: cell-based, mouse; details: 96 h
Description: C4-2-HI and 59-HI epithelial cells from primary cell cultures were allowed to attach for 24 h. The medium was replaced with fresh medium with 10% FCS, and 5azadC was added for 96 h. The medium was refreshed daily. Cells were processed for western blot or immunofluorescence to evaluate PR expression.
Cytosolic or nuclear extracts were processed for western blots as described previously. The cells were lysed using Mammalian Protein Extraction Reagent (Pierce, Rockford, Ill.) according the manufacturer's instructions. […] The band intensities from 3 to 4 different tumor samples indifferent western blots were quantified using Image Quant software.
Frozen sections or cells grown in chamber slides, fixed in 70% ethanol for 1 h, were incubated with antibodies recognizing Dnmt1, Dnmt3a, Dnmt3b, PRA (Ab-7), RPB (Ab-6), or GR, in blocking buffer at a 1:200 dilution overnight at 4° C. […] Stained cells were analyzed using a Nikon Eclipse E800 Laser Confocal Microscope and EZ-C1 2.20 software. Cell staining was quantified using Image Quant software.

C4-2-HI and 59-HI cells = experiment: (3H)-thymidine incorporation with 5azadC and RU-486 in 10% FCS; assay type: cell-based, mouse; details: 5 μM 5azadC, 100 nM RU-486; P<0.001
Description: (3H)-thymidine-uptake was used as an indirect method to evaluate cell proliferation. In brief, cells were seeded into 96-well microplates. After attachment (24 h), the cells were incubated for 24 h with 1% steroid-stripped FCS and then for 48 h with the experimental solutions to be tested in 1% chFCS. Fifty percent of the medium was replaced with fresh medium every 24 h. […] In experiments in which 5azadC was used, the experiments were carried out using proliferating cells (presence of 10% FCS) to guarantee the effect of the demethylating agent. Three different experiments were made using octuplicates, and the means and standard deviations of one representative experiment of the other three are shown.

C4-2-HI tumors = experiment: Constitutive-resistant tumor transplanted s.c. in BALB/c mice; assay type: in vivo, mouse
Description: (§1) C4-2-HI, 59-HI, and C4-HIR tumors were transplanted s.c nearby the mammary gland 4th in syngenic mice, and measured every 2 days (length and width). Treatments were initiated when the tumors were palpable. […] The mice were inoculated intraperitoneally (i.p.) with 0.75 mg/kg 5azadC (for C4-2-HI and C4-HIR tumors) or 1 mg/kg 5azadC (for 59-HI tumors) every other day. All the experiments were repeated twice using five mice per group. The animals were euthanized after 13 days of treatment, and tumor samples were removed and frozen at −80° C. or fixed in 10% formaldehyde.
(§2) Cytosolic or nuclear extracts were processed for western blots as described previously. The cells were lysed using Mammalian Protein Extraction Reagent (Pierce, Rockford, Ill.) according the manufacturer's instructions. The western blot membranes were incubated with antibodies against PR (C-19, Santa Cruz Biotech, CA, or Ab-7, Neomarkers, Lab Vision Corp, Fremont, Calif.), PRB (Ab-6, Neomarkers), ERKs (SC-94, Santa Cruz Biotech), E-Cad (610182, BD), Actin (1-19, Santa Cruz Biotech), DnmtI, Dnmt3a and Dnmt3b (H-300, H-295, and H-230, respectively, Santa Cruz Biotech), RARβ (SC-14028, Santa Cruz Biotech), PTEN Ab32199, Abcam), p16 (SC-1207, Santa Cruz Biotech), Rb (SC-50, Santa Cruz Biotech), or glucocorticoid receptors (GRs) (SC-1004, Santa Cruz Biotech) overnight at 4° C., at a concentration of 2 μg/ml in PBST (0.8% NaCl, 0.02% KCl, 0.144% Na2PO4, 0.024% KH2PO4, pH 7.4, 0.1% Tween 20). The band intensities from 3 to 4 different tumor samples indifferent western blots were quantified using Image Quant software.
(§3) Sections of formalin-fixed, paraffin-embedded tissue were processed as previously described and stained with the PRA-specific antibody (C-19) using the avidin-biotin-peroxidase complex technique (Vectastain Elite ABC kit; Vector), as described previously.
(§4) H&E stained sections of livers, spleens, and kidneys from the 5azadC-treated mice (1 mg/kg or 0.75 mg/kg/every other day; n=5) were studied by an expert mouse pathologist. The percentage of tumor stoma versus tumor parenchyma was quantified with the ImageJ software in treated and untreated tumors. The stromal area in relation to the total tumor area was calculated in five representative fields of each sample, using 400× magnification, in three different tumor samples of each group, and the mean±SEM was calculated. Mitotic and apoptotic indices were counted in 10 and 15 high-power fields (HPFs), respectively, of each section, using 1000× magnification, and expressed as the mean±SEM of the percentage of the ratios between the total number of events (mitosis or apoptosis) and the total cell number per HPF. Mitotic figures were identified morphologically by the condensed “hairy” aspect of the chromosomes. Morphological identification of apoptosis was performed according to criteria previously reported, which correlated with the deoxynucleotidyl transferase mediated dUTP-biotin nick end labeling (TUNEL) method.
(§5) C4-2-HI and 59-HI tumors were transplanted s.c nearby the mammary gland 4th in syngenic mice, and measured every 2 days (length and width). Treatments were initiated when the tumors were palpable. […] The mice were inoculated intraperitoneally (i.p.) with 0.75 mg/kg 5azadC every other day and s.c. with 1 mg/kg TSA every other day. All the experiments were repeated twice using five mice per group. The animals were euthanized after 13 days of treatment, and tumor samples were removed and frozen at −80 C or fixed in 10% formaldehyde.

59-HI tumors = experiment: as above; assay type: in vivo, mouse
Description: as §1, §2, §3, §4, §5

[2] = Histology of livers, spleens and kidneys of 5azadC-treated mice; assay type: in vivo, mouse; details: 0.75 and 1 mg/kg every other day
Description: as §4

C4-HIR cells = experiment: (3H)-thymidine uptake, primary cultures of purified epithelial cells; assay type: cell-based, mouse; details: 48 h, 1% chFCS; P<0.001
Description: (§6) Epithelial cells and carcinoma-associated fibroblasts were separated by differential sedimentation and plated with 10% FCS. Carcinoma-associated fibroblasts were allowed to attach for 0.5 h and the epithelial cells for 24-48 h. The medium was replaced by fresh medium with 10% FCS; thereafter, it was changed every 2-3 days.
(§7) (3H)-thymidine-uptake was used as an indirect method to evaluate cell proliferation. In brief, cells were seeded into 96-well microplates. After attachment (24 h), the cells were incubated for 24 h with 1% steroid-stripped FCS and then for 48 h with the experimental solutions to be tested in 1% chFCS. Fifty percent of the medium was replaced with fresh medium every 24 h. The cells were incubated with 0.4 μCi of 3H-thymidine (specific activity: 20 Ci/mmol) for 24 h, trypsinized, and harvested in a cell harvester. In experiments in which 5azadC was used, the experiments were carried out using proliferating cells (presence of 10% FCS) to guarantee the effect of the demethylating agent. Three different experiments were made using octuplicates, and the means and standard deviations of one representative experiment of the other three are shown. The results are expressed as the proliferation index (cpm […] experimental group/cpm control; mean±SEM).

C4-HI cells = experiment: as above; assay type: cell-based, mouse; details: 48 h, 1% chFCS; P<0.001
Description: as §6, §7

C4-2-HI cells = experiment: as above; assay type: cell-based, mouse; details: 48 h, 1% chFCS
Description: as §6, §7

T47D cells = details: 5% FCS; cited from earlier work
[3] = system: C4-HI or C4-HIR epithelial cells with carcinoma-associated fibroblasts; experiment: (3H)-thymidine uptake, co-cultures with carcinoma-associated fibroblasts; assay type: cell-based, mouse; details: own or other tumor's fibroblasts
Description: Trypsinized cells were resuspended and equal amounts of epithelial cells and carcinoma-associated fibroblasts were seeded with 10% FCS that was replaced after attachment by 1% steroid-stripped FCS. […] The same amount of epithelial cells or carcinoma-associated fibroblasts or double the amount of purified cells was used for comparison.
as §7

SMILES | expression of GR (immunofluorescence) (GR in C4-2-HI cells) | PRA expression ([1]; 5×10^-7 M (C4-2-HI), 5×10^-6 M (59-HI), P<0.001) | PRB staining (Ab-6 antibody) [1] | cell proliferation, (3H)-thymidine incorporation (C4-2-HI and 59-HI cells) | PRA staining (immunohistochemistry) (C4-2-HI tumors; 5azadC-treated vs control tumors) | PRA expression (western blots) (C4-2-HI tumors; P<0.01) | tumor growth (C4-2-HI tumors; RU-486 12 mg/kg/day s.c., 5azadC 0.75 mg/kg every other day i.p., 13 days) | PRB level (C4-2-HI tumors; not shown) | expression of GR (western blots) (C4-2-HI tumors; tumors from 5azadC-treated mice) | PRA staining (immunohistochemistry) (59-HI tumors; 5azadC-treated tumors) | PRA expression (western blots) (59-HI tumors; P<0.01) | tumor growth (59-HI tumors; RU-486 12 mg/kg/day s.c., 5azadC 1 mg/kg every other day i.p., 13 days) | PRB level (59-HI tumors; not shown) | Histological evaluation of liver, spleen, and kidney [2] | cell proliferation (proliferation index) (C4-HIR cells) | cell proliferation (proliferation index) (C4-HI cells) | cell proliferation (proliferation index) (C4-2-HI cells) | effects on T47D cells (T47D cells) | co-culture cell proliferation [3]
Nc1ncn([C@H]2C[C@H](O)[C@@H](CO)O2)c(=O)n1 [5azadC, 5-aza-2′-deoxycytidine] | decreased | increase in PRA expression | no significant changes | did not alter cell proliferation | increase in nuclear and cytoplasmic PRA staining | increase in PRA expression | no significant differences | not significantly modified | decreased | only cytoplasmic and perinuclear PRA staining | increase in PRA expression | no significant differences | not significantly modified | no signs of toxicity | – | – | – | – | –
CC(=O)O[C@]1(C(C)=O)CC[C@H]2[C@@H]3C[C@H](C)C4=CC(=O)CC[C@]4(C)[C@H]3CC[C@@]21C [MPA, medroxyprogesterone acetate] | – | – | – | – | – | – | – | – | – | – | – | – | – | – | proliferative effect | strong proliferative effect | no differences were observed | inhibitory effects | stimulated
